The supplement of paper PMC10307832

Legend:
Test in all cases: relative viability (nuclei count vs DMSO), 5 days (fraction); higher = more cells survive
LCLC-97TM1 = system: LCLC-97TM1
In short: (§1)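 Lung cancer cell lines, seeded in 1536-well plates, were treated the following day by pin tool with a single drug or with five library-drug doses (not always all listed) in √10 steps on top of a fixed anchor-drug dose. Cells were fixed and nuclei stained in one step after 5 days, and nuclei were counted. Relative viability is the nuclei count for treated wells divided by that for vehicle wells, reported as medians of duplicate plates.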

NCI-H2342 = system: NCI-H2342
In short: as §1

NCI-H1755 = system: NCI-H1755
In short: as §1

EPLC-272H = system: EPLC-272H
In short: as §1

SW 900 = system: SW 900
In short: as §1

HOP-62 = system: HOP-62
In short: as §1

NCI-H1915 = system: NCI-H1915
In short: as §1

NCI-H2170 = system: NCI-H2170
In short: as §1

LXF-289 = system: LXF-289
In short: as §1

NCI-H2085 = system: NCI-H2085
In short: as §1

LU99A = system: LU99A
In short: as §1

UMC-11 = system: UMC-11
In short: as §1

NCI-H460 = system: NCI-H460
In short: as §1

NCI-H1975 = system: NCI-H1975
In short: as §1

NCI-H358 = system: NCI-H358
In short: as §1

HCC-366 = system: HCC-366
In short: as §1

NCI-H1944 = system: NCI-H1944
In short: as §1

LC-2-ad = system: LC-2-ad
In short: as §1

NCI-H1793 = system: NCI-H1793
In short: as §1

COR-L 105 = system: COR-L 105
In short: as §1

A-427 = system: A-427
In short: as §1

HCC-78 = system: HCC-78
In short: as §1

SK-LU-1 = system: SK-LU-1
In short: as §1

C[C@@H]1CN(CC(=O)Nc2ccc3c(c2)Cc2cccc(-c4cc(=O)cc(N5CCOCC5)o4)c2S3)C[C@H](C)O1 + COc1cc2c(Oc3ccc(NC(=O)C4(C(=O)Nc5ccc(F)cc5)CC4)cc3F)ccnc2cc1OCCCN1CCOCC1 [Foretinib] (partner 0.25 µM)
relative viability (LCLC-97TM1; first compound 0.04 µM): 0.902 | relative viability (LCLC-97TM1; first compound 0.1265 µM): 0.862 | relative viability (LCLC-97TM1; first compound 0.4 µM): 0.959 | relative viability (LCLC-97TM1; first compound 4 µM): 0.969 | relative viability (NCI-H2342; first compound 0.04 µM): 0.959 | relative viability (NCI-H2342; first compound 0.1265 µM): 0.95 | relative viability (NCI-H2342; first compound 0.4 µM): 0.973 | relative viability (NCI-H2342; first compound 4 µM): 0.908 | relative viability (NCI-H1755; first compound 0.04 µM): 0.914 | relative viability (NCI-H1755; first compound 0.1265 µM): 0.887 | relative viability (NCI-H1755; first compound 0.4 µM): 0.875 | relative viability (NCI-H1755; first compound 4 µM): 0.798 | relative viability (EPLC-272H; first compound 0.04 µM): 0.643 | relative viability (EPLC-272H; first compound 0.1265 µM): 0.817 | relative viability (EPLC-272H; first compound 0.4 µM): 0.761 | relative viability (EPLC-272H; first compound 4 µM): 0.674 | relative viability (SW 900; first compound 0.04 µM): 0.809 | relative viability (SW 900; first compound 0.1265 µM): 0.836 | relative viability (SW 900; first compound 0.4 µM): 0.816 | relative viability (SW 900; first compound 4 µM): 0.782 | relative viability (HOP-62; first compound 0.04 µM): 0.924 | relative viability (HOP-62; first compound 0.1265 µM): 1.08 | relative viability (HOP-62; first compound 0.4 µM): 1.13 | relative viability (HOP-62; first compound 4 µM): 0.9 | relative viability (NCI-H1915; first compound 0.04 µM): 1.06 | relative viability (NCI-H1915; first compound 0.1265 µM): 1.13 | relative viability (NCI-H1915; first compound 0.4 µM): 1.03 | relative viability (NCI-H1915; first compound 4 µM): 1.05 | relative viability (NCI-H2170; first compound 0.04 µM): 1.08 | relative viability (NCI-H2170; first compound 0.1265 µM): 0.97 | relative viability (NCI-H2170; first compound 0.4 µM): 0.648 | relative viability (NCI-H2170; first compound 4 µM): 1 | relative viability (LXF-289; first compound 0.04 µM): 0.993 | relative viability (LXF-289; first compound 0.1265 µM): 1.01 | relative viability (LXF-289; first compound 0.4 µM): 0.985 | relative viability (LXF-289; first compound 4 µM): 0.936 | relative viability (NCI-H2085; first compound 0.04 µM): 1.15 | relative viability (NCI-H2085; first compound 0.1265 µM): 0.83 | relative viability (NCI-H2085; first compound 0.4 µM): 1.03 | relative viability (NCI-H2085; first compound 4 µM): 0.745 | relative viability (LU99A; first compound 0.04 µM): 0.79 | relative viability (LU99A; first compound 0.1265 µM): 0.959 | relative viability (LU99A; first compound 0.4 µM): 1.02 | relative viability (LU99A; first compound 4 µM): 0.854 | relative viability (UMC-11; first compound 0.04 µM): 1.1 | relative viability (UMC-11; first compound 0.1265 µM): 0.995 | relative viability (UMC-11; first compound 0.4 µM): 1.1 | relative viability (UMC-11; first compound 4 µM): 0.746 | relative viability (NCI-H460; first compound 0.04 µM): 0.898 | relative viability (NCI-H460; first compound 0.1265 µM): 1.02 | relative viability (NCI-H460; first compound 0.4 µM): 1.1 | relative viability (NCI-H460; first compound 4 µM): 0.862 | relative viability (NCI-H1975; first compound 0.04 µM): 0.978 | relative viability (NCI-H1975; first compound 0.1265 µM): 0.782 | relative viability (NCI-H1975; first compound 0.4 µM): 0.996 | relative viability (NCI-H1975; first compound 4 µM): 0.765 | relative viability (NCI-H358; first compound 0.04 µM): 0.547 | relative viability (NCI-H358; first compound 0.1265 µM): 0.677 | relative viability (NCI-H358; first compound 0.4 µM): 0.682 | relative viability (NCI-H358; first compound 4 µM): 0.4 | relative viability (HCC-366; first compound 0.04 µM): 0.922 | relative viability (HCC-366; first compound 0.1265 µM): 0.929 | relative viability (HCC-366; first compound 0.4 µM): 1.1 | relative viability (HCC-366; first compound 4 µM): 0.913 | relative viability (NCI-H1944; first compound 0.04 µM): 0.761 | relative viability (NCI-H1944; first compound 0.1265 µM): 0.888 | relative viability (NCI-H1944; first compound 0.4 µM): 0.926 | relative viability (NCI-H1944; first compound 4 µM): 0.912 | relative viability (LC-2-ad; first compound 0.04 µM): 0.863 | relative viability (LC-2-ad; first compound 0.1265 µM): 0.921 | relative viability (LC-2-ad; first compound 0.4 µM): 0.913 | relative viability (LC-2-ad; first compound 4 µM): 0.874 | relative viability (NCI-H1793; first compound 0.04 µM): 0.556 | relative viability (NCI-H1793; first compound 0.1265 µM): 0.72 | relative viability (NCI-H1793; first compound 0.4 µM): 0.809 | relative viability (NCI-H1793; first compound 4 µM): 0.476 | relative viability (COR-L 105; first compound 0.04 µM): 1.39 | relative viability (COR-L 105; first compound 0.1265 µM): 0.971 | relative viability (COR-L 105; first compound 0.4 µM): 1.17 | relative viability (COR-L 105; first compound 4 µM): 0.701 | relative viability (A-427; first compound 0.04 µM): 1.05 | relative viability (A-427; first compound 0.1265 µM): 1.17 | relative viability (A-427; first compound 0.4 µM): 1.11 | relative viability (A-427; first compound 4 µM): 1.22 | relative viability (HCC-78; first compound 0.04 µM): 0.554 | relative viability (HCC-78; first compound 0.1265 µM): 0.579 | relative viability (HCC-78; first compound 0.4 µM): 0.513 | relative viability (HCC-78; first compound 4 µM): 0.468 | relative viability (SK-LU-1; first compound 0.04 µM): 0.813 | relative viability (SK-LU-1; first compound 0.1265 µM): 0.831 | relative viability (SK-LU-1; first compound 0.4 µM): 0.859 | relative viability (SK-LU-1; first compound 4 µM): 0.565

CC(C)Oc1cc(Nc2nc(N[C@@H](C)c3ccc(F)cn3)ncc2Cl)n[nH]1 [AZ23] + Cc1cc(Nc2cc(N3CCN(C)CC3)nc(Sc3ccc(NC(=O)C4CC4)cc3)n2)n[nH]1 [Tozasertib] (partner 0.1 µM)
relative viability (LCLC-97TM1; first compound 0.01 µM): 0.186 | relative viability (LCLC-97TM1; first compound 0.03162 µM): 0.266 | relative viability (LCLC-97TM1; first compound 0.3162 µM): 0.194 | relative viability (NCI-H2342; first compound 0.01 µM): 0.482 | relative viability (NCI-H2342; first compound 0.03162 µM): 0.483 | relative viability (NCI-H2342; first compound 0.3162 µM): 0.455 | relative viability (NCI-H1755; first compound 0.01 µM): 0.556 | relative viability (NCI-H1755; first compound 0.03162 µM): 0.613 | relative viability (NCI-H1755; first compound 0.3162 µM): 0.664 | relative viability (EPLC-272H; first compound 0.01 µM): 0.384 | relative viability (EPLC-272H; first compound 0.03162 µM): 0.263 | relative viability (EPLC-272H; first compound 0.3162 µM): 0.246 | relative viability (SW 900; first compound 0.01 µM): 0.536 | relative viability (SW 900; first compound 0.03162 µM): 0.654 | relative viability (SW 900; first compound 0.3162 µM): 0.532 | relative viability (HOP-62; first compound 0.01 µM): 0.352 | relative viability (HOP-62; first compound 0.03162 µM): 0.424 | relative viability (HOP-62; first compound 0.3162 µM): 0.37 | relative viability (NCI-H1915; first compound 0.01 µM): 0.479 | relative viability (NCI-H1915; first compound 0.03162 µM): 0.507 | relative viability (NCI-H1915; first compound 0.3162 µM): 0.514 | relative viability (NCI-H2170; first compound 0.01 µM): 0.836 | relative viability (NCI-H2170; first compound 0.03162 µM): 0.752 | relative viability (NCI-H2170; first compound 0.3162 µM): 0.831 | relative viability (LXF-289; first compound 0.01 µM): 0.222 | relative viability (LXF-289; first compound 0.03162 µM): 0.205 | relative viability (LXF-289; first compound 0.3162 µM): 0.204 | relative viability (NCI-H2085; first compound 0.01 µM): 0.799 | relative viability (NCI-H2085; first compound 0.03162 µM): 0.855 | relative viability (NCI-H2085; first compound 0.3162 µM): 0.803 | relative viability (LU99A; first compound 0.01 µM): 0.243 | relative viability (LU99A; first compound 0.03162 µM): 0.286 | relative viability (LU99A; first compound 0.3162 µM): 0.296 | relative viability (UMC-11; first compound 0.01 µM): 0.181 | relative viability (UMC-11; first compound 0.03162 µM): 0.197 | relative viability (UMC-11; first compound 0.3162 µM): 0.19 | relative viability (NCI-H460; first compound 0.01 µM): 0.184 | relative viability (NCI-H460; first compound 0.03162 µM): 0.518 | relative viability (NCI-H460; first compound 0.3162 µM): 0.566 | relative viability (NCI-H1975; first compound 0.01 µM): 0.836 | relative viability (NCI-H1975; first compound 0.03162 µM): 0.977 | relative viability (NCI-H1975; first compound 0.3162 µM): 0.744 | relative viability (NCI-H358; first compound 0.01 µM): 0.101 | relative viability (NCI-H358; first compound 0.03162 µM): 0.114 | relative viability (NCI-H358; first compound 0.3162 µM): 0.107 | relative viability (HCC-366; first compound 0.01 µM): 0.114 | relative viability (HCC-366; first compound 0.03162 µM): 0.152 | relative viability (HCC-366; first compound 0.3162 µM): 0.234 | relative viability (NCI-H1944; first compound 0.01 µM): 0.279 | relative viability (NCI-H1944; first compound 0.03162 µM): 0.247 | relative viability (NCI-H1944; first compound 0.3162 µM): 0.243 | relative viability (LC-2-ad; first compound 0.01 µM): 0.467 | relative viability (LC-2-ad; first compound 0.03162 µM): 0.446 | relative viability (LC-2-ad; first compound 0.3162 µM): 0.452 | relative viability (NCI-H1793; first compound 0.01 µM): 0.317 | relative viability (NCI-H1793; first compound 0.03162 µM): 0.373 | relative viability (NCI-H1793; first compound 0.3162 µM): 0.339 | relative viability (COR-L 105; first compound 0.01 µM): 0.375 | relative viability (COR-L 105; first compound 0.03162 µM): 0.447 | relative viability (COR-L 105; first compound 0.3162 µM): 0.365 | relative viability (A-427; first compound 0.01 µM): 0.174 | relative viability (A-427; first compound 0.03162 µM): 0.193 | relative viability (A-427; first compound 0.3162 µM): 0.177 | relative viability (HCC-78; first compound 0.01 µM): 0.344 | relative viability (HCC-78; first compound 0.03162 µM): 0.482 | relative viability (HCC-78; first compound 0.3162 µM): 0.334 | relative viability (SK-LU-1; first compound 0.03162 µM): 0.382 | relative viability (SK-LU-1; first compound 0.3162 µM): 0.335
